Measurements taken from the supplement of paper PMC11208160.

Test: recombinant UMI read abundance after kanamycin selection (control-corrected) (log10(CPM+1)); higher = more efficient recombination; extreme values may be limits of the assay; sequences stand for … in AGTGCAGAGAAAATCGGCCAGTTTTCTCTGCCTGCAGTCCGCATGCCGTGGGACCCCTTGGGTTCTAACCTGTTGCCTAGATTTATGCAGCGGACTGCCTTTCTCCCAAAGTGATAAACCGG…AGGTTGGTTTCACT; site = the 11-nt donor
How it was run: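 In a pooled Escherichia coli screen for the IS621 bridge recombinase, donor and donor-binding-loop pairs were each placed with a 12-nt UMI on a plasmid bearing a promoterless kanamycin gene. This library was co-electroporated with a target plasmid encoding a fixed target and T7-inducible recombinase, and cells were plated either on IPTG (0.07 mM) plus kanamycin or without selection, in two replicates each. Recombinant UMIs were PCR-amplified across the donor–target junction and sequenced, and counts were converted to CPM, averaged over replicates, scaled by control-derived factors and reported as log10(CPM+1).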
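Further: IS621 bridge recombinase in Escherichia coli cells against a fixed T5 target plasmid.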

| Sequence | recombinant UMI read abundance (log10) |
| --- | --- |
| CGCTAATCATGGACCGGTTTTCCCGGTAATCCGTATTTGCT (site CGCTAATCTAG) | 1.97 |
| CGCTACACATGGACCGGTTTTCCCGGTAATCCGTATTTGCT (site CACTACACTAG) | 1.32 |
| CGCTACACATGGACCGGTTTTCCCGGTAATCCGTATTTGCT (site CCCTACACTAG) | 1.29 |
| CGCTACACATGGACCGGTTTTCCCGGTAATCCGTATTTGCT (site CGCTACACTAG) | 2.9 |
| CGCTACACATGGACCGGTTTTCCCGGTAATCCGTATTTGCT (site CTCTACACTAG) | 0.92 |
| CGCTAGGCATGGACCGGTTTTCCCGGTAATCCGTATTTGGT (site AGCTAGGCTAC) | 0.0207 |
| CGCTAGGCATGGACCGGTTTTCCCGGTAATCCGTATTTGGT (site CGCTAGGCTAC) | 0.0166 |
| CGCTAGGCATGGACCGGTTTTCCCGGTAATCCGTATTTGGT (site GGCTAGGCTAC) | 0.00627 |
| CGCTAGGCATGGACCGGTTTTCCCGGTAATCCGTATTTGGT (site TGCTAGGCTAC) | 0.0198 |
| CGCTCAACATGGACCGGTTTTCCCGGTAATCCGTATTTGCC (site CGCTCAACTGG) | 0.429 |
| CGCTCATCATGGACCGGTTTTCCCGGTAATCCGTATTTGCG (site CGATCATCTAG) | 0 |
| CGCTCATCATGGACCGGTTTTCCCGGTAATCCGTATTTGCG (site CGCTCATCTCG) | 0.716 |
| CGCTCATCATGGACCGGTTTTCCCGGTAATCCGTATTTGCT (site CGATCATCTAG) | 0 |
| CGCTCATCATGGACCGGTTTTCCCGGTAATCCGTATTTGCT (site CGCTCATCTAG) | 2.6 |
| CGCTCATCATGGACCGGTTTTCCCGGTAATCCGTATTTGCT (site CGGTCATCTAG) | 0 |
| CGCTCATCATGGACCGGTTTTCCCGGTAATCCGTATTTGCT (site CGTTCATCTAG) | 1.35 |
| CGCTCGACATGGACCGGTTTTCCCGGTAATCCGTATTTGTT (site CGATCGACTAA) | 0 |
| CGCTCGACATGGACCGGTTTTCCCGGTAATCCGTATTTGTT (site CGCTCGACTAA) | 0 |
| CGCTCGACATGGACCGGTTTTCCCGGTAATCCGTATTTGTT (site CGGTCGACTAA) | 0 |

| Sequence | recombinant UMI read abundance (log10) |
| --- | --- |
| CGCTCGACATGGACCGGTTTTCCCGGTAATCCGTATTTGTT (site CGTTCGACTAA) | 0 |
| CGCTGGCCATGGACCGGTTTTCCCGGTAATCCGTATTTGCT (site CGCTGGCCTAG) | 0.278 |
| CGCTTGGCATGGACCGGTTTTCCCGGTAATCCGTATTTGCT (site CGATTGGCTAG) | 0 |
| CGCTTGGCATGGACCGGTTTTCCCGGTAATCCGTATTTGCT (site CGCTTGGCTAG) | 0 |
| CGCTTGGCATGGACCGGTTTTCCCGGTAATCCGTATTTGCT (site CGGTTGGCTAG) | 0 |
| CGCTTGGCATGGACCGGTTTTCCCGGTAATCCGTATTTGCT (site CGTTTGGCTAG) | 0 |
| CGCTTGTCATGGACCGGTTTTCCCGGTAATCCGTATTTGCG (site CGCTTGTCTCG) | 1.46 |
| CGGAAATCATGGACCGGTTTTCCCGGTAATCCGTATTTGCT (site CGGAAATCTAG) | 2.06 |
| CGGAAATCATGGACCGGTTTTCCCGGTAATCCGTATTTGCT (site CGGACATCTAG) | 0.293 |
| CGGAAATCATGGACCGGTTTTCCCGGTAATCCGTATTTGCT (site CGGAGATCTAG) | 0.215 |
| CGGAAATCATGGACCGGTTTTCCCGGTAATCCGTATTTGCT (site CGGATATCTAG) | 0 |
| CGGAACGCATGGACCGGTTTTCCCGGTAATCCGTATTTGTT (site CGGAACGCTAA) | 3.15 |
| CGGAACGCATGGACCGGTTTTCCCGGTAATCCGTATTTGTT (site CGGAATCCTAA) | 0.0213 |
| CGGAAGACATGGACCGGTTTTCCCGGTAATCCGTATTTGTT (site CGGAAGACTAA) | 2.3 |
| CGGAAGACATGGACCGGTTTTCCCGGTAATCCGTATTTGTT (site CGGAATCCTAA) | 0.00737 |
| CGGAAGCCATGGACCGGTTTTCCCGGTAATCCGTATTTGAT (site CGGAAGCCTAT) | 0.713 |
| CGGAAGCCATGGACCGGTTTTCCCGGTAATCCGTATTTGAT (site CGGAATCCTAA) | 0 |
| CGGAAGCCATGGACCGGTTTTCCCGGTAATCCGTATTTGCA (site AGGAAGACTTG) | 0 |
| CGGAAGCCATGGACCGGTTTTCCCGGTAATCCGTATTTGCA (site CGGAAGCCTTG) | 0 |
